Experiments:
PD-L1 receptor = PD-L1 receptor (Mus musculus, UniProt Q9EP73); experiment: Membrane receptor expression analysis using flow cytometry; type: cell-based, murine; conditions: 4T1, 500 nM, APC-conjugated PD-L1 antibody
CD47/SIRPα axis = experiment: In vitro phagocytosis assay, BMDMs cocultured with CT26.CL25; type: cell-based, BALB/c mice; conditions: 30 min treatment of CT26.CL25, 200 nM; comparison of the two treated groups

Chain of PD-L1 receptor (Q9EP73 19-290): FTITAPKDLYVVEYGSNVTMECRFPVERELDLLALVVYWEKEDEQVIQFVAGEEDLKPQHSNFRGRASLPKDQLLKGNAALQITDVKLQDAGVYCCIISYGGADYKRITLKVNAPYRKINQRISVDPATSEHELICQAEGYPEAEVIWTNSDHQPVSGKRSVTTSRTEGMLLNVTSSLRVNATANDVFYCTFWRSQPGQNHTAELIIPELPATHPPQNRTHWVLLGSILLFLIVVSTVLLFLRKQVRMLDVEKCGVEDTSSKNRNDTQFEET

Substance | PD-L1 expression (percentage of positive cells) (PD-L1 receptor; 1 h) | PD-L1 expression (percentage of positive cells) (PD-L1 receptor; 48 h) | phagocytic index (%) (CD47/SIRPα axis)
D-peptide NYSKPTDRQYHF [PD-L1-ligand] | 3.29% | 7.82% | 
EEELQIIQPDKSVLVAAGETATLRCTITSLFPVGPIQWFRGAGPGRVLIYNQRQGPFPRVTTVSDTTKRNNMDFSIRIGNITPADAGTYYCIKFRKGSPDDVEFKSGAGTELSVRAKP [CD47-ligand] |  |  | similar

Reference: paper PMC10552107 (ACS Omega, 2023)
